Experimental data as given in paper PMC11672400, “Synthesis, Spectroscopic Characterization, Structural Analysis, and Evaluation of Anti-Tumor, Antimicrobial, and Antibiofilm Activities of Halogenoaminopyrazoles Derivatives” (Antibiotics, 2024).
Converted amounts (≈) assume the structure as drawn. Read-outs that look alike come from different tables or passages of the source.

What was measured:
[1] = MTT cell viability / cytotoxicity on normal fibroblasts; type: cell-based, mouse; conditions: mouse, NCTC clone 929 (L929) mouse fibroblast cells
Text: Merck chemicals were utilized.
Untreated cells were used as control, considered 100% viable cells.

[2] = tested on: Enterococcus faecalis ATCC29212; experiment: Qualitative evaluation of antimicrobial activity (inhibition zone, spot on agar); type: cell-based; design: key: (+) inhibited bacterial growth; (-) did not inhibit bacterial growth; conditions: 0.06 g/2 mL DMSO, 5 µL spot
Procedure: (§1) For testing the antimicrobial/antibiofilm activity, the concentration of the studied compounds was identical to 0.06 g/2 mL DMSO. 0.5 Standard McFarland suspension was used, which was inoculated onto Mueller Hinton agar plates, (Remel, Lenexa, KS, USA), 5 µL of each compound was spotted and incubated overnight at 37 °C. Antimicrobial activity was observed as zones of inhibition formed around the spot.

[3] = tested on: Escherichia coli ATCC25922; experiment: as above; type: cell-based; design: key: (+) inhibited bacterial growth; (-) did not inhibit bacterial growth; conditions: 0.06 g/2 mL DMSO, 5 µL spot
Procedure: as §1

[4] = tested on: Pseudomonas aeruginosa ATCC27853; experiment: as above; type: cell-based; design: key: (+) inhibited bacterial growth; (-) did not inhibit bacterial growth; conditions: 0.06 g/2 mL DMSO, 5 µL spot
Procedure: as §1

[5] = tested on: Staphylococcus aureus ATCC25923; experiment: as above; type: cell-based; design: key: (+) inhibited bacterial growth; (-) did not inhibit bacterial growth; conditions: 0.06 g/2 mL DMSO, 5 µL spot
Procedure: as §1

[6] = tested on: Enterococcus faecalis ATCC29212; experiment: MIC by serial microdilution in liquid medium; type: cell-based; conditions: Enterococcus faecalis, ATCC29212; 24 h, 37 °C; read-out: Minimum inhibitory concentration, Enterococcus faecalis ATCC29212
Procedure: (§2) The minimum inhibitory concentrations (MIC) were determined by the serial microdilution method in a liquid medium (Tryptone Soy Broth), on 96-well plates. Serial binary dilutions of the compound stock solution (10 mg/mL in DMSO) were carried out in 90 µL of culture medium and 10 µL of 10^6 CFU/mL (Colony Forming Units) microbial suspension. Each test included a positive control (wells with culture medium and microbial suspension) and a negative control for medium sterility. After incubation at 37 °C for 24 h the plates were visually examined, and optical density was measured at 620 nm. […] The MIC value (µg/mL) for the chemical compound was determined by the concentration in the final well without bacterial growth. All experiments were performed in triplicate.

[7] = tested on: Escherichia coli ATCC25922; experiment: MIC by serial microdilution in liquid medium; type: cell-based; conditions: 24 h, 37 °C; for MIC: Escherichia coli, ATCC25922, read-out: Minimum inhibitory concentration, Escherichia coli ATCC25922
Procedure: as §2

[8] = tested on: Pseudomonas aeruginosa ATCC27853; experiment: MIC by serial microdilution in liquid medium; type: cell-based; conditions: Pseudomonas aeruginosa, ATCC27853; 24 h, 37 °C; read-out: Minimum inhibitory concentration, Pseudomonas aeruginosa ATCC27853
Procedure: as §2

[9] = tested on: Staphylococcus aureus ATCC25923; experiment: MIC by serial microdilution in liquid medium; type: cell-based; conditions: 24 h, 37 °C; for MIC: Staphylococcus aureus, ATCC25923, read-out: Minimum inhibitory concentration, Staphylococcus aureus ATCC25923
Procedure: as §2

[10] = tested on: Staphylococcus aureus ATCC25923; experiment: Antibiofilm assay (crystal violet), MBIC; type: cell-based; conditions: 24 h, 37 °C; for minimal effective concentration: Staphylococcus aureus, ATCC25923, read-out: Minimum biofilm inhibition concentration (MBIC), Staphylococcus aureus ATCC25923
Procedure: (§3) Microorganisms were grown in 96-well plates filled with nutrient broth along with test substances, followed by incubation at 37 °C for 24 h. Plates were cleaned and rinsed thrice using SPW solution (sterile physiological water). After that, the attached cells were treated with 110 μL of methanol for 5 min, and then the methanol was removed by turning it upside down. […] Once stained, the solution was removed, and the plates were washed with running tap water. […] The antimicrobial/antibiofilm activity of the compounds was evaluated against two antibiotics, commercial formulations of metronidazole and nitrofurantoin.

[11] = tested on: HEp-2 epithelial tumor cells; experiment: MTT cell viability / anti-tumor activity; conditions: Homo sapiens, read-out: Cell viability on Hep2 cells (%)
[12] = tested on: Escherichia coli ATCC25922; experiment: Antibiofilm assay (crystal violet), MBIC; type: cell-based; conditions: 37 °C; for minimal effective concentration: Escherichia coli, ATCC25922, 24 h, read-out: Minimum biofilm inhibition concentration (MBIC), Escherichia coli ATCC25922
Procedure: as §3

[13] = tested on: Pseudomonas aeruginosa ATCC27853; experiment: Antibiofilm assay (crystal violet), MBIC; type: cell-based; conditions: 37 °C; for minimal effective concentration: Pseudomonas aeruginosa, ATCC27853, 24 h, read-out: Minimum biofilm inhibition concentration (MBIC), Pseudomonas aeruginosa ATCC27853
Procedure: as §3

[14] = tested on: Enterococcus faecalis ATCC29212; experiment: Antibiofilm assay (crystal violet), MBIC; type: cell-based; conditions: Enterococcus faecalis, ATCC29212, 24 h, 37 °C, read-out: Minimum biofilm inhibition concentration (MBIC), Enterococcus faecalis ATCC29212
Procedure: as §3

SMILES | viability at 24 h, 3.1 µg/mL [1] [%] | viability at 48 h, 3.1 µg/mL [1] [%] | viability at 24 h, 6.25 µg/mL [1] [%] | viability at 48 h, 6.25 µg/mL [1] [%] | viability at 24 h, 12.5 µg/mL [1] [%] | viability at 48 h, 12.5 µg/mL [1] [%] | viability at 24 h, 25 µg/mL [1] [%] | viability at 48 h, 25 µg/mL [1] [%] | viability at 24 h, 50 µg/mL [1] [%] | Qualitative antimicrobial activity, Enterococcus faecalis ATCC29212 [2] | Qualitative antimicrobial activity, Escherichia coli ATCC25922 [3] | Qualitative antimicrobial activity, Pseudomonas aeruginosa ATCC27853 [4] | Qualitative antimicrobial activity, Staphylococcus aureus ATCC25923 [5] | MIC [6] [µg/mL] | MIC [7] [µg/mL] | MIC [8] [µg/mL] | MIC [9] [µg/mL] | minimal effective concentration [10] [µg/mL] | minimal effective concentration [12] [µg/mL] | minimal effective concentration [13] [µg/mL] | also measured
Cc1nn(CNc2cccc(Cl)c2)c(C)c1[N+](=O)[O-] [4e, N-[(3,5-dimetyl-4-nitro-1H-pyrazol-1-yl)-methyl]-3-chloroaniline] | 93.1 ± 2.76 | 89.5 ± 2.24 | 94.3 ± 2.92 | 98.3 ± 2.03 | 97.8 ± 0.99 | 93.2 ± 2.94 | 95.6 ± 2.19 | 92.2 ± 0.89 | 63.5 ± 3.18 | - | + | + | + | 930 ± 0.02 (≈ 3310 µM) | 460 (≈ 1640 µM) | 930 ± 0.53 (≈ 3310 µM) | 460 (≈ 1640 µM) | 460 |  |  | viability at 48 h, 50 µg/mL [1]: 63.2 ± 2.56%; Minimum inhibitory concentration, Escherichia coli ATCC25922 [7]: 460 ± 0.52 µg/mL (≈ 1640 µM); Minimum inhibitory concentration, Staphylococcus aureus ATCC25923 [9]: 460 ± 0.03 µg/mL (≈ 1640 µM); Minimum biofilm inhibition concentration (MBIC), Staphylococcus aureus ATCC25923 [10]: 460 ± 0.04 µg/mL; melting point: 110 to 111 °C; viability at 3.1 µg/mL ([11]; HEp-2, 24 h): 106.5 ± 0.73%; viability at 6.25 µg/mL ([11]; HEp-2, 24 h): 103.7 ± 0.28%; viability at 12.5 µg/mL ([11]; HEp-2, 24 h): 99.7 ± 0.32%; viability at 25 µg/mL ([11]; HEp-2, 24 h): 89.15 ± 0.88%; viability at 50 µg/mL ([11]; HEp-2, 24 h): 56.46 ± 0.42%; viability at 3.1 µg/mL ([11]; HEp-2, 48 h): 98.1 ± 2.88%; viability at 6.25 µg/mL ([11]; HEp-2, 48 h): 97.1 ± 1.78%; viability at 12.5 µg/mL ([11]; HEp-2, 48 h): 94.8 ± 2.84%; viability at 25 µg/mL ([11]; HEp-2, 48 h): 81.7 ± 2.38%; viability at 50 µg/mL ([11]; HEp-2, 48 h): 54.9 ± 2.76%
Cc1nn(CNc2ccccc2Cl)c(C)c1[N+](=O)[O-] [4f, N-[(3,5-dimetyl-4-nitro-1H-pyrazol-1-yl)-methyl]-2-chloroaniline] | 107 ± 1.61 | 99.6 ± 1.2 | 108 ± 1.6 | 106 ± 1.7 | 103 ± 1.05 | 103.1 ± 0.68 | 93.7 ± 2.77 | 97.8 ± 2.35 | 87.7 ± 1.77 | - | + | + | + | 930 ± 0.04 (≈ 3310 µM) | 460 (≈ 1640 µM) | 460 ± 0.03 (≈ 1640 µM) | 460 (≈ 1640 µM) | 460 | 460 | 460 | viability at 48 h, 50 µg/mL [1]: 80.5 ± 1.16%; Minimum inhibitory concentration, Escherichia coli ATCC25922 [7]: 460 ± 0.02 µg/mL (≈ 1640 µM); Minimum inhibitory concentration, Staphylococcus aureus ATCC25923 [9]: 460 ± 0.01 µg/mL (≈ 1640 µM); Minimum biofilm inhibition concentration (MBIC), Escherichia coli ATCC25922 ([12]; 24 h): 460 ± 0.02 µg/mL; Minimum biofilm inhibition concentration (MBIC), Pseudomonas aeruginosa ATCC27853 ([13]; 24 h): 460 ± 0.01 µg/mL; Minimum biofilm inhibition concentration (MBIC), Staphylococcus aureus ATCC25923 [10]: 460 ± 0.02 µg/mL; melting point: 134 to 135 °C; viability at 3.1 µg/mL ([11]; HEp-2, 24 h): 98.3 ± 1.16%; viability at 6.25 µg/mL ([11]; HEp-2, 24 h): 98.61 ± 0.72%; viability at 12.5 µg/mL ([11]; HEp-2, 24 h): 95.5 ± 2.45%; viability at 25 µg/mL ([11]; HEp-2, 24 h): 94.3 ± 2.78%; viability at 50 µg/mL ([11]; HEp-2, 24 h): 93.9 ± 1.03%; viability at 3.1 µg/mL ([11]; HEp-2, 48 h): 98.3 ± 3.38%; viability at 6.25 µg/mL ([11]; HEp-2, 48 h): 97.74 ± 0.62%; viability at 12.5 µg/mL ([11]; HEp-2, 48 h): 93.63 ± 0.75%; viability at 25 µg/mL ([11]; HEp-2, 48 h): 86 ± 0.93%; viability at 50 µg/mL ([11]; HEp-2, 48 h): 72.8 ± 2.33%
Cc1ncc([N+](=O)[O-])n1CCO [Metronidazole, metronidazole, reference compound] |  |  |  |  |  |  |  |  |  | + | + | + | + | 970 ± 0.17 (≈ 5670 µM) | 1950 ± 0.05 (≈ 11400 µM) | 1562 ± 0.03 (≈ 9130 µM) | 1950 ± 0.05 (≈ 11400 µM) | 1950 ± 0.09 | 1950 ± 0.04 | 1562 ± 0.11 | minimal effective concentration [14]: 970 ± 0.21 µg/mL
O=C1CN(/N=C/c2ccc([N+](=O)[O-])o2)C(=O)N1 [Nitrofurantoin, nitrofurantoin, reference compound] |  |  |  |  |  |  |  |  |  | + | + | + | + | 600 ± 0.12 (≈ 2520 µM) | 600 ± 0.02 (≈ 2520 µM) | 3571 ± 0.08 (≈ 15000 µM) | 600 ± 0.04 (≈ 2520 µM) | 2230 ± 0.13 | 600 ± 0.03 | 550 ± 0.23 | minimal effective concentration [14]: 600 ± 0.17 µg/mL
